Assay results taken from patent US8748429B2, “CGRP receptor antagonists” (Bristol-Myers Squibb Company, priority 2011, dated 2014).

Target: Human CGRP Receptor (Homo sapiens, UniProt O60894+Q16602)
Experiment: Human CGRP Binding

Sequence of Human CGRP Receptor (Q16602 23-461): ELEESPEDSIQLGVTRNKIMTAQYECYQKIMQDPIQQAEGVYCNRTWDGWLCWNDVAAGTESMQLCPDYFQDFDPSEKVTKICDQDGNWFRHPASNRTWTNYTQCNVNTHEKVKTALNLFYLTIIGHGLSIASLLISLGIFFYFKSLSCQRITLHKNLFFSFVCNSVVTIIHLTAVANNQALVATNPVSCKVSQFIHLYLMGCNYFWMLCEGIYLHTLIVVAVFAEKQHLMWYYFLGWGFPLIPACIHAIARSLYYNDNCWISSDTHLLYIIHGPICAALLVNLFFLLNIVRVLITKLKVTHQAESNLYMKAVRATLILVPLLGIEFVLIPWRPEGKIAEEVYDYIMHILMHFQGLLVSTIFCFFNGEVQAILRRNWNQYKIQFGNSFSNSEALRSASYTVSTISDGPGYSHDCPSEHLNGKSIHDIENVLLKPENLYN
Sequence of Human CGRP Receptor (O60894 27-148): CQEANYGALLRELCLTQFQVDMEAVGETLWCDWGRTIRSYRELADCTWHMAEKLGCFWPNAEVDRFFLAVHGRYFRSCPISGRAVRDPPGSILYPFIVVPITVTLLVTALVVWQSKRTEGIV

IC50	SMILES
470 nM	N[C@@H]1c2nccnc2C(CC(=O)N2CCC(n3c(=O)[nH]c4ncccc43)CC2)=CC[C@H]1c1cccc(F)c1F [Example 2, 1-(1-(2-((5S,6S,Z)-5-amino-6-(2,3-difluorophenyl)-6,7-dihydro-5H-cyclohepta[b]pyrazin-9-yl)acetyl)piperidin-4-yl)-1H-imidazo[4,5-b]pyridin-2(3H)-one]
0.11 nM	N[C@@H]1c2nccnc2[C@H](OC(=O)N2CCC(n3c(=O)[nH]c4ncccc43)CC2)CC[C@H]1c1cccc(F)c1F [Example 4, (5R,8S,9S)-9-amino-8-(2,3-difluorophenyl)-6,7,8,9-tetrahydro-5H-cyclohepta[b]pyrazin-5-yl 4-(2-oxo-2,3-dihydro-1H-imidazo[4,5-b]pyridin-1-yl)piperidine-1-carboxylate]
1.1 nM	N[C@@H]1c2nccnc2[C@H](NC(=O)N2CCC(n3c(=O)[nH]c4ncccc43)CC2)CC[C@H]1c1cccc(F)c1F [Example 7, N-((5R,8S,9S)-9-amino-8-(2,3-difluorophenyl)-6,7,8,9-tetrahydro-5H-cyclohepta[b]pyrazin-5-yl)-4-(2-oxo-2,3-dihydro-1H-imidazo[4,5-b]pyridin-1-yl)piperidine-1-carboxamide]
0.095 nM	N[C@@H]1c2scnc2[C@H](OC(=O)N2CCC(n3c(=O)[nH]c4ncccc43)CC2)CC[C@H]1c1cccc(F)c1F [Example 8, (4R,7S,8S)-8-amino-7-(2,3-difluorophenyl)-5,6,7,8-tetrahydro-4H-cyclohepta[d]thiazol-4-yl 4-(2-oxo-2,3-dihydro-1H-imidazo[4,5-b]pyridin-1-yl)piperidine-1-carboxylate]
0.13 nM	N[C@@H]1c2sc(C(F)(F)F)nc2[C@H](OC(=O)N2CCC(n3c(=O)[nH]c4ncccc43)CC2)CC[C@H]1c1cccc(F)c1F [Example 9, (4R,7S,8S)-8-amino-7-(2,3-difluorophenyl)-2-(trifluoromethyl)-5,6,7,8-tetrahydro-4H-cyclohepta[d]thiazol-4-yl 4-(2-oxo-2,3-dihydro-1H-imidazo[4,5-b]pyridin-1-yl)piperidine-1-carboxylate]

Second part, the compound before the results:

SMILES	IC50
CC(C)(C)OC(=O)N[C@@H]1c2nccnc2C(CC(=O)N2CCC(n3c(=O)[nH]c4ncccc43)CC2)=CC[C@H]1c1cccc(F)c1F [Example 1, tert-butyl (5S,6S,Z)-6-(2,3-difluorophenyl)-9-(2-oxo-2-(4-(2-oxo-2,3-dihydro-1H-imidazo[4,5-b]pyridin-1-yl)piperidin-1-yl)ethyl)-6,7-dihydro-5H-cyclohepta[b]pyrazin-5-ylcarbamate]	570 nM
CC(C)(C)OC(=O)N[C@@H]1c2nccnc2[C@H](OC(=O)N2CCC(n3c(=O)[nH]c4ncccc43)CC2)CC[C@H]1c1cccc(F)c1F [Example 3, (5R,8S,9S)-9-(tert-butoxycarbonylamino)-8-(2,3-difluorophenyl)-6,7,8,9-tetrahydro-5H-cyclohepta[b]pyrazin-5-yl 4-(2-oxo-2,3-dihydro-1H-imidazo[4,5-b]pyridin-1-yl)piperidine-1-carboxylate]	1.1 nM
CC(C)(C)OC(=O)N[C@@H]1c2nccnc2[C@H](NC(=O)N2CCC(n3c(OCOCC[Si](C)(C)C)nc4ncccc43)CC2)CC[C@H]1c1cccc(F)c1F [Example 5, tert-butyl (5S,6S,9R)-6-(2,3-difluorophenyl)-9-(4-(2-((2-(trimethylsilyl)ethoxy)methoxy)-1H-imidazo[4,5-b]pyridin-1-yl)piperidine-1-carboxamido)-6,7,8,9-tetrahydro-5H-cyclohepta[b]pyrazin-5-ylcarbamate]	74 nM
CC(C)(C)OC(=O)N[C@@H]1c2nccnc2[C@H](NC(=O)N2CCC(n3c(=O)n(COCC[Si](C)(C)C)c4ncccc43)CC2)CC[C@H]1c1cccc(F)c1F [Example 6, tert-butyl (5S,6S,9R)-6-(2,3-difluorophenyl)-9-(4-(2-oxo-3-((2-(trimethylsilyl)ethoxy)methyl)-2,3-dihydro-1H-imidazo[4,5-b]pyridin-1-yl)piperidine-1-carboxamido)-6,7,8,9-tetrahydro-5H-cyclohepta[b]pyrazin-5-ylcarbamate]	910 nM
